Results reported in patent publication US20080279843A1, “Method For Improving Insulin Sensitivity By Administering an Inhibitor of Antitrypsin” (Essential SkinCare, LLC, priority 2003, published 2008).

How the values were obtained:
[1] = system: C57/Black female mice; assay: Glucose tolerance test with insulin and commercial AT (Example 2); type: in vivo
Method: C57/Black female mice weighing 22-23 g were fasted for 16 hours. Four animals were used for each of four treatment groups. The first and fourth treatment group received intraperitoneal injections of 1500 μg commercially obtained AT. Exactly 23 hours and 45 minutes after the AT was administered to the first and fourth treatment group, the animals in the first and second treatment group received 0.5 I.U. of insulin. Exactly 15 minutes after the insulin was administered (i.e., 24 hours after the AT was administered to the first treatment group), glucose (3 g/kg) was injected intraperitoneally into the first, second and third treatment groups. Blood samples were taken from the eyes (canthus), and glucose concentrations in whole blood samples were immediately measured with the fast Glucose C test (Wako Chemicals USA Inc., Richmond, Va., USA). The data presented are the mean ±S.D. of four determinations, one with each animal.

[2] = system: differentiated rat L6 muscle cells; assay: Cellular uptake of D-[14C]glucose; type: cell-based
Method: (§1) Rat L6 skeletal muscle cells were obtained from the American Type Culture Collection, Rockville, Md. L6 cell monolayers were induced to differentiate in Minimal Essential Medium (MEM) containing 2% (v/v) fetal bovine serum (FBS) and 1% (v/v) antibiotic/antimycotic solution. The cells were fed fresh medium every 48 hours. Myoblast differentiation, which occurred by about the 7-9th day, was monitored by phase contrast microscopy. Differentiated L6 cells are widely used models for studying glucose metabolism in the skeletal muscle. The present study was focused on these cells, because skeletal muscle accounts for about 70-80% of total blood glucose metabolism in the human body.
(§2) To examine cellular glucose uptake and metabolism, differentiated (attached) cells in 12-well plates were incubated at 37° C. in a CO2 incubator (95% air: 5% CO2) with D-[^14C]glucose (1 μCi/mL) in 2% FBS-containing medium containing 5.5 mM unlabeled glucose for 0.5-6 hours as indicated at the corresponding Figures. At the termination of incubation, the medium was removed. An aliquot of the medium was taken to determine the loss of [^14C]glucose from the medium which corresponds to its uptake by cells. Cells were washed twice with 3 ml medium to remove traces of medium containing unincorporated radioactivity. Ice-cold 99.8% methanol/0.2% water (v/v) mixture (1 ml) was then added to the monolayers and cells were extracted for 2 hours at −20° C. […] The methanol phase (1 ml) and a following 1 ml methanol wash were added to 2 ml chloroform followed by the addition of 3 ml water. Of the resulting two phases (separation was facilitated by brief centrifugation), the lower phase contained the total radiolabeled lipids, while the upper phase contained [^14C]glucose.
(§3) Aliquots of the upper and lower phases were taken to scintillation vials to determine the amounts of radiolabeled glucose and total lipids, respectively, by liquid scintillation counting. Precipitated [^14C]glycogen was suspended in 0.75 ml of 1 M NaOH and transferred to scintillation vial. This procedure was repeated with another 0.75 ml aliquot of NaOH. To neutralize the suspension, […] (approximately 150 μL) was then added to the vials, followed by the addition of 8.5 ml Ecolume (scintillation fluid). While the 1 M NaOH suspension contained some particulate material (mostly protein which was not labeled with radiolabeled glucose), no precipitate remained in the suspension after addition of Ecolume. […] No additional radioactivity could be removed from the well by neutralized 30% KOH.
(§4) Three groups of differentiated L6 cells, incubated in 12-well plates in 2% FBS-containing medium, were treated as follows. A first control group ([…]) was untreated. A second group (▴) was treated with 500 nM insulin for 30 min. A third group (▪) was treated first with 0.4 mg/ml of AT followed by an addition of 500 nM insulin for 30 min. Following the addition of D-[^14C]glucose, each group was incubated in the continuous presence of insulin and AT, as described above, for 0.5-6 hours.
Four groups of differentiated L6 cells, incubated in 12-well plates in 2% FBS-containing medium, were treated as follows. A first control group was untreated. A second group was treated with 500 nM insulin for 30 min. A third group was treated with 0.05 to 0.4 mg/ml of AT for 10 min. Finally, a fourth group was treated with 0.05 to 0.4 mg/ml of AT for 10 min followed by the addition of 500 nM insulin for 30 min. […]

[3] = system: differentiated rat L6 muscle cells; assay: Synthesis of [14C]glycogen from radiolabeled glucose; type: cell-based
Method: as §1, §2, §3
In some experiments, a published procedure [Huang, D., Cheung, A. T., Parsons, J. T. and Bryer-Ash, M. “Focal adhesion kinase (FAK) regulates insulin-stimulated glycogen synthesis in hepatocytes.” J. Biol. Chem. 277, 18151-18160, (2002)] was used to determine glucose incorporation into glycogen in a method similar to the one described above. After incubations with [^14C] glucose, cells were solubilized with 20% KOH for 2 hours. Lysates were extracted with 8% […], neutralized with 2.0 M HCl, then boiled for 5 min. The total glycogen was precipitated by the addition of 80% ethanol (final concentration) for 2 hours at −20° C. followed by centrifugation at 1100×g for 10 min. This step was repeated.
After the pellets had been re-dissolved in distilled water, the samples were precipitated again using the same method described above, and yielded essentially the same results. In subsequent experiments the initial methanol precipitation method described above was used because it allowed for analysis of cellular glucose, glycogen and lipids from the same sample.
as §4, with “Following the addition of D-[^14C]glucose, each group was incubated in the continuous presence of insulin and AT, as described above, for 0.5-6 hours.” left out

[4] = system: differentiated rat L6 muscle cells; assay: Synthesis of [14C]total lipid from radiolabeled glucose; type: cell-based; details: FIG. 4C, 5 hours
Method: as §1
To examine cellular glucose uptake and metabolism, differentiated (attached) cells in 12-well plates were incubated at 37° C. in a CO2 incubator (95% air: 5% CO2) with D-[^14C]glucose (1 μCi/mL) in 2% FBS-containing medium containing 5.5 mM unlabeled glucose for 0.5-6 hours as indicated at the corresponding Figures. […] Cells were washed twice with 3 ml medium to remove traces of medium containing unincorporated radioactivity. […]
Aliquots of the upper and lower phases were taken to scintillation vials to determine the amounts of radiolabeled glucose and total lipids, respectively, by liquid scintillation counting. […] No additional radioactivity could be removed from the well by neutralized 30% KOH. […]

[5] = 0.4 mg/ml AT, 500 nM insulin, 30 min incubation

α1-antitrypsin [AT]
Effect of AT on the action of insulin on blood glucose level ([1]; FIG. 2, AT 1.5 mg/mouse i.p. 24 h prior, insulin 0.5 I.U., glucose 3 g/kg i.p.): blocked the action of insulin | Effect of AT alone on the blood glucose level ([1]; FIG. 2 insert, AT 1.5 mg/mouse i.p., no insulin, no glucose (fourth treatment group)): no significant effect on the blood glucose level | Effect of AT on the insulin effect on cellular [14C]glucose, short incubation [2, 5]: no such inhibitory effects | Effect of AT on insulin-stimulated uptake of D-[14C]glucose ([2]; FIG. 3A, 0.4 mg/ml purified AT, incubations for 2 hrs or 6 hours): inhibited both insulin effects | Effect of AT on cellular level of [14C]glucose in the absence of insulin ([2]; FIG. 4A, 0.05 to 0.4 mg/ml AT, 5 hours): did not significantly affect | Decrease of cellular level of [14C]glucose by AT in the presence of insulin ([2]; FIG. 4A, 0.2 to 0.4 mg/ml AT, 500 nM insulin, 5 hours): at least 50% | Effect of AT on the insulin effect on [14C]glycogen, short incubation [3, 5]: no such inhibitory effects | Effect of AT on insulin-stimulated synthesis of [14C]glycogen ([3]; FIG. 3B, 0.4 mg/ml purified AT, incubations for 2 hrs or 6 hours): inhibited both insulin effects | Effect of AT on cellular level of [14C]glycogen in the absence of insulin ([3]; FIG. 4B, 0.05 to 0.4 mg/ml AT, 5 hours): did not significantly affect | Decrease of synthesis of cellular [14C]glycogen by AT in the presence of insulin ([3]; FIG. 4B, 0.2 to 0.4 mg/ml AT, 500 nM insulin, 5 hours): at least 50% | Inhibition by AT of the insulin effect on [14C]glycogen synthesis ([3]; FIG. 5, 0.4 mg/ml AT, 500 nM insulin, 5 hours): about 70% | Effect of AT on cellular level of [14C]total lipid in the absence of insulin ([4]; 0.05 to 0.4 mg/ml AT): did not significantly affect | Decrease of synthesis of [14C]total lipid by AT in the presence of insulin ([4]; 0.2 to 0.4 mg/ml AT, 500 nM insulin): at least 50%
